In data set [1] the target is T1, recombinant HIV-1 protease (Human immunodeficiency virus type 1 group M subtype B, UniProt P04585).
T1 construct: measured using a recombinant HIV-1 protease
As to the kind of experiment: HIV protease inhibition activity (enzyme activity inhibition rate). Format: biochemical. To be noted: 50 nM final concentration of test compound; 60 min at 37° C.; read-out: Enzyme activity inhibition rate (%) (addition concentration of 50 nM). As for the experimental part:
The protease activity was measured using a recombinant HIV-1 protease (see Biochemistry, 250 (9)-264 (1990)) and a synthesized peptide substrate. The inhibition rate was calculated by determining a peptide fragment generated by cleavage between Tyr-Pro of the synthesized substrate after the reaction of 60 min at 37° C. using a reversed phase HPLC in the presence of the test compounds in various concentrations (see, for example, Japanese Patent Application Laid-open No. 170722/1993).
Examples of the evaluation results of the HIV protease inhibition activity of the tripeptide compound of the present invention by the above-described method is shown in Table 1. […] The concentration of the test compounds in Table 1 represents the final concentration in the reaction mixture.

In data set [2] the target is T1, recombinant HIV-1 protease. The data set can be described thus: Evaluation of enzyme inhibition constant Ki. Format: biochemical. As for the experimental part:
The synthesized peptide substrate having a sequence of H-Lys-Ala-Arg-Val-Tyr-Phe (4-NO2)-Glu-Ala-Nle-NH2 (SEQ ID NO. 1) was used in this experiment. The enzyme reaction was measured using a reversed phase HPLC by determining the C-terminal peptide fraction produced by cleavage just behind Tyr in the synthesized substrate which is obtained by reacting the following composition for 15 min. at 37° C. and stopping the reaction by the addition of 1N HCl (75 μl).
Composition of reaction mixture
Recombinant HIV-1 protease enzyme solution 10 μl
0.5 mM synthetic substrate aqueous solution 10 μl
DMSO Inhibitor solution 5 μl
0.2 M MES solution 25 μl
(1 M NaCl, 2 mM EDTA-2Na, 2 mM DTT, pH 5.5)
Column: Waters Nova-pak C18 (3.9×75 mm)
Eluent: A; water (0.1% TFA)
B; acetonitrile (0.1% TFA)
Flow rate: 2 ml/min isocratic; 10% B solution
Detection: Fluorescence 305 nm, excitation 275 nm

Data set [3] relates to HIV virus strain HIV-1 IIIB. As to the kind of experiment: Anti-HIV activity in HIV infected CEM-SS cells (XTT method). Format: cell-based. To be noted: Human immunodeficiency virus 1, 144 h, HIV-1 IIIB infected CEM-SS cell, six days at 37° C. As for the experimental part:
(§1) EP 0751145 A2). On a 96-well micro titre plate, the test compounds were added to the culture medium in various concentrations, then the HIV infected CEM-SS cell was added and incubated for six days at 37° C. using a CO2 incubator. The number of the living cells was then measured by a XTT method. On the other hand, in order to examine the cytotoxicity of the test compounds, the test compounds were added in various concentrations and the HIV virus non-infected cell was incubated under similar conditions. As the reference group, the HIV infected CEM-SS cell was incubated without the addition of the test compounds. Moreover, the HIV virus non-infected cell was incubated without the addition of the test compound as the control group. The anti-virus activity was evaluated in a concentration in which the cytotoxic effect caused by the HIV infected virus in the above HIV infected cell group was inhibited 50 percent (EC50, 50% effective concentration), and the cytotoxicity was evaluated in a concentration in which the cytotoxic effect by the addition of the test compound in the HIV virus non-infected cell group occurred at 50 percent (TC50, 50% cytotoxic concentration) respectively.

The next data set deals with CEM-SS cell. The data set can be described thus: Cytotoxicity in HIV virus non-infected CEM-SS cells (XTT method). Format: cell-based. As to conditions: six days, highest concentration 1.0 μg/ml. As for the experimental part:
as §1
Background: Tetrazolium assays rely on reduction of a dye to a coloured formazan, in cell work by metabolically active cells.

A short description of data set [4]: Pharmacokinetics test (digestive tract absorption and metabolic characteristics) in rats. As to conditions: 10 mg/kg; for F (biological utilization rate of administration in the duodenum): Id versus Iv; for MRT / T1/2 (λ): Iv; for T1/2 (λ): final phase half-life. It counts as in vivo. As for the experimental part:
The metabolic characteristics of the tripeptide compound of the present invention were evaluated using rats for a test animal. As the Control Example, the result of KNI-272 ((R)-N-tert-butyl-3-{(2S,3S)-2-hydroxy-3-[N-(isoquinolin-5-yloxy)acetyl-me thylthio-L-alanyl]amino-4-phenylbutanoyl}-1,3-thiazolidine-4-carboxamide; iQoa-Mta-Apns-Thz-NHtBu) which is a tripeptide derivative known in the art, is also shown. The amount administred was 10 mg/kg. The evaluated administration methods are a method (id) of administering a solution of a fixed amount of the test compound in the duodenum of a test animal, and a method (iv) of administering the solution intravenously. After administration, blood samples were taken from the test animal and concentrations of the residual test compound in the plasma were analyzed. As indices concerning pharmacokinetics, AUC (area under medicine concentration curve in plasma), MRT (mean residence time), t1/2 (λ) (final phase half-life period), and the biological utilization rate of administration in the duodenum F were calculated.

≈ marks a conversion by molar mass, not a printed value. Bounds are passed on as bounds.

Four compounds from US6291432A (Japan Energy Corporation, priority 1996, dated 2001) can be followed below.

A word on the Ki: it is the dissociation constant of the complex between target and ligand, obtained from inhibition or displacement. Broadly, the EC50 is the midpoint of the concentration-response curve. Higher therefore signals lower potency in that assay. Usually AUC stands for concentration integrated over time. The low end stands for low exposure, the high end for high exposure. By MRT is commonly meant a mean duration of stay, worked out from the concentration-time curve.

`COc1cccc2cc(C(=O)N[C@H](C(=O)N[C@@H](Cc3ccccc3)[C@H](O)C(=O)N3CSC(C)(C)[C@H]3C(=O)NCc3ccccc3C)C(C)C)oc12` [Example 16, (R)-N-(2-methylbenzyl)-3-{(2S,3S)-3-[N-(7-methoxybenzofuran-2-carbonyl)-L-valyl]amino-2-hydroxy-4-phenylbutanoyl}-5,5-dimethyl-1,3-thiazolidine-4-carb oxamide]: the inhibition at 0.05 µM in data set [1] came to 97.1%. In addition, the Ki in data set [2] is 0.014 nM. A half-maximal effect in data set [3] (EC50) was put at 0.0017 µg/mL (≈ 0.00238 µM). Besides, the “Cytotoxicity TC50” value with CEM-SS cell is above 1.0 µg/mL. The compound further showed an AUC in data set [4] (Id (in the duodenum)) of 90 µg·min/mL. Besides, in data set [4], the “F (biological utilization rate of administration in the duodenum)” value is recorded as 27%, the MRT was 67 min and the “T1/2 (λ)” value was 74 min. This compound displayed an AUC in data set [4] (Iv (intravenous)) of 322 µg·min/mL.
For `COC(=O)N[C@H](C(=O)N[C@@H](Cc1ccccc1)[C@H](O)C(=O)N1CSC(C)(C)[C@H]1C(=O)NCc1ccccc1C)C(C)C` [Example 27, (R)-N-(2-methylbenzyl)-3-{(2S,3S)-2-hydroxy-3-[(S)-2-(methoxycarbonyl)amino-3-methylbutanoyl]amino-4-phenylbutanoyl}-5,5-dimethyl-1,3-thiazolidine-4-c arboxamide], in data set [1], the inhibition at 0.05 µM was found to be 94.9%. Also, in data set [3], the response was half-maximal at 0.026 µg/mL (≈ 0.0434 µM) (EC50). Further, in the data set with CEM-SS cell, the “Cytotoxicity TC50” value is above 1.0 µg/mL. In addition, in data set [4] (Id (in the duodenum)), the AUC came out at 87 µg·min/mL. For the same compound, in data set [4], the “F (biological utilization rate of administration in the duodenum)” value was determined as 32%, the MRT is 71 min and the “T1/2 (λ)” value is 87 min. In data set [4] (Iv (intravenous)), the AUC turned out to be 272 µg·min/mL.
As to `CC(C)[C@H](NC(=O)COc1cccc(N(C)C)c1)C(=O)N[C@@H](Cc1ccccc1)[C@H](O)C(=O)N1CSC(C)(C)[C@H]1C(=O)NC(C)(C)C` [Example 35, (R)-N-tert-butyl-3-{(2S,3S)-2-hydroxy-3-[(S)-2-(3-dimethylaminophenoxyacetyl)amino-3-methylbutanoyl]amino-4-phenylbutanoyl}-5,5-dimethyl-1,3-thiazolidine-4-carboxamide], the inhibition at 0.05 µM in data set [1] came to 96%. Moreover, the Ki in data set [2] was 0.07 nM. In addition, in data set [3], the EC50 amounted to 0.01 µg/mL (≈ 0.0149 µM). Further, in the data set on CEM-SS cell, the “Cytotoxicity TC50” value is above 1.0 µg/mL. Moreover, in data set [4] (Id (in the duodenum)), the AUC came to 105 µg·min/mL. Further, in data set [4], the “F (biological utilization rate of administration in the duodenum)” value came to 89%, the MRT worked out at 68 min and the “T1/2 (λ)” value was 63 min. Besides, the AUC in data set [4] (Iv (intravenous)) came out at 119 µg·min/mL.
As to `CC[C@H](NC(=O)COc1cccc(N(C)C)c1)C(=O)N[C@@H](Cc1ccccc1)[C@H](O)C(=O)N1CSC(C)(C)[C@H]1C(=O)NC(C)(C)C` [Example 36, (R)-N-tert-butyl-3-{(2S,3S)-2-hydroxy-3-[(S)-2-(3-dimethylaminophenoxyacetyl)aminobutanoyl]amino-4-phenylbutanoyl}-5,5-dimethyl-1,3-thiazolidine-4-car boxamide], in data set [1], the inhibition at 0.05 µM amounted to 95%. For the same compound, the EC50 in data set [3] worked out at 0.017 µg/mL (≈ 0.0259 µM). Moreover, in the data set with CEM-SS cell, the “Cytotoxicity TC50” value is above 1.0 µg/mL. The AUC in data set [4] (Id (in the duodenum)) came to 185 µg·min/mL. Besides, in data set [4], the “F (biological utilization rate of administration in the duodenum)” value is 82%, the MRT was 124 min and the “T1/2 (λ)” value amounted to 110 min. Moreover, in data set [4] (Iv (intravenous)), the AUC was 226 µg·min/mL.
